This note sets out measurements from US20030119894A1, “Methods for treatment of cancer or neoplastic disease and for inhibiting growth of cancer cells and neoplastic cells” (Gemin X Biotechnologies Inc., priority 2001, published 2003).

The test system of data set [1] is E1A cells. As to the kind of experiment: E1A-Bcl2 killing assay. Type of data set: cell-based. How it is done: (§1) Human anti-apoptotic Bcl-2 over-expressing epithelial cells (B23 cells) (Nguyen et al. (1994) J. Biol. Chem. 269 (24): 16521-24) were plated in 24-well plates at a density of about 80,000 cells per well and infected with 12S-adenovirus, which expresses the E1A oncogene (Nguyen et al. (1998) J. Biol. Chem. 273 (50): 33099-102). Normal human breast epithelial cells, MCF-7 breast cancer cells and MBA-MB231 breast cancer cells were plated in 24-well plates at a density of between 70,000-80,000 cells per well. After incubation at 37° C. for the indicated times in a 5% CO2 incubator, cells were harvested and cell death was monitored using a trypan blue assay as described in Ausubel et al. (1988) Current Protocols in Molecular Biology, Section 11.5.1 (Greene Publishing Associates and Intersciences, New York)).
IC50 values determined for these illustrative compounds in an E1A killing assay, using the materials and methods described above. These compounds have been described in Gerber et al. (1975), Critical Reviews in Microbiology, pp. 469-85.

For data set [2], the system named is Baby rat kidney cells. The experiment in a line: Transformation of baby rat kidney cells transfected with E1A oncogene and Bcl-2 (colony count). The class given is cell-based. How it is done:
Baby rat kidney cells were transfected with RcRSV (Hartl et al. (1992) Cell Growth Differ. 3 (12): 909-18) expressing both E1A oncogene and anti-apoptotic Bcl-2 as described in (Lin et al. (1995) Mol. Cell. Biol. 15 (8): 4536-44). Transfected cells were then cultured (Lin et al. (1995) Mol. Cell. Biol. 15 (8): 4536-44) in the presence of varying concentrations of Butyl-meta-cycloheptylprodiginine for three weeks and the number of transformed cell colonies was counted.

The target of data set [3] is T1, Bcl-w (Homo sapiens, UniProt Q92843).
T1 sequence (Q92843 1-193): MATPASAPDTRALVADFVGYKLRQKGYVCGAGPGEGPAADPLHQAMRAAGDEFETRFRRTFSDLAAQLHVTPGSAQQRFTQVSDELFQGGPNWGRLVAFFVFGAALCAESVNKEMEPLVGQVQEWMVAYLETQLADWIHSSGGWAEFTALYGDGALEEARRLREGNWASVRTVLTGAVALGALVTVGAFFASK
As to the kind of experiment: Anti-apoptotic:Pro-apoptotic binding assay, Bcl-w.

Data set [4] has as its system MCF-7 breast cancer cells. As to the kind of experiment: Trypan blue cell death assay in MCF-7 breast cancer cells. The following applies: Homo sapiens, MCF7, 72 h, read-out: Cytotoxicity (% Dead Cells). Type of data set: cell-based. How it is done: as §1
Data set [5] concerns B23 cells. As to the kind of experiment: cells. The class given is cell-based, Human. How it is done: as §1
Normally, intracellular expression of an oncogene in cells results in apoptotic cell death. However, if anti-apoptotic Bcl-2 is over-expressed in these cells, they are protected from apoptosis. Therefore, an anti-cancer compound's activity can be monitored by measuring cell death in B23 cells in the presence of the E1A oncogene.

The subject of data set [6] is normal baby rat kidney cells. As to the kind of experiment: Susceptibility of normal baby rat kidney cells. The class given is cell-based. The following applies: similar conditions; data not shown. An excerpt: In the absence of anti-apoptotic Bcl-2, all baby rat kidney cells died within a few days (data not shown).
Data set [7] deals with Human oral epithelial carcinoma cells (KB cells). The experiment in a line: Apoptosis reinstatement in Bcl-2 over-expressing KB cells (trypan blue). Type of data set: cell-based. As for the experimental part:
Human oral epithelial carcinoma cells (KB cells) with and without stably expressed anti-apoptotic Bcl-2 were infected with 12S-adenovirus expressing the E1A oncogene, as described above in Example 6.1. Cell death was monitored 70 hours after infection using the trypan blue assay described above.

Data set [8] has as its target Bcl-2 (Homo sapiens, UniProt P10415). As to the kind of experiment: Anti-apoptotic:Pro-apoptotic binding assay, Bcl-2.
The nature of data set [9]: Trypan blue cell death assay in normal human breast epithelial cells. The class given is cell-based. The following applies: human. How it is done:
as §1

The subject of data set [10] is Normal human breast epithelial cells. The data set is described as above. Type of data set: cell-based. The following applies: 1 μM. As for the experimental part: as §1
For data set [11], the system named is B23 cells. The class given is cell-based, Human. The following applies: B23 cells without E1A; data not shown.
The test system of data set [12] is MBA-MB231 breast cancer cells. As to the kind of experiment: cells. The class given is cell-based. The following applies: 72 h, read-out: Cytotoxicity (% Dead Cells). As for the experimental part: as §1
Where [13] appears, read: Homo sapiens, 72 h, read-out: Cytotoxicity (% Dead Cells).

Bcl-2, sequence (P10415 whole entry): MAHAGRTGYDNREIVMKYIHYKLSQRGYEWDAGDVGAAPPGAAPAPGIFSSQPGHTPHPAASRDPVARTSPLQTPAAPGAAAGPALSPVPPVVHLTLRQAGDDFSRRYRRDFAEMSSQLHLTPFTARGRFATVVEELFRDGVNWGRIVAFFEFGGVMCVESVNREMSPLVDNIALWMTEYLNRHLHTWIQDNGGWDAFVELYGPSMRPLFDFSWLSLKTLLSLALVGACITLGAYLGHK

Broadly, the IC50 is the concentration needed to halve the response being measured. Regarding `CCCCC1CCCCCCc2cc1c(/C=C1\N=C(c3ccc[nH]3)C=C1OC)[nH]2` (stereo not shown) [Butyl-meta-cycloheptylprodiginine, butyl-meta-cycloheptylprodiginine], the IC50 in data set [1] (read-out: IC50 (μM) E1A-Bcl2 killing assay) is 0.05 µM; in data set [3], 100 µM; in data set [8], 125 µM. For the same compound, in data set [2] (baby rat kidney cells transformed with Bcl-2 and E1A), the “Apoptosis of transformed colonies” value is recorded as “promoted apoptosis of the transformed colonies”. Moreover, the “Number of transformed cell colonies (ability of Bcl-2 to transform cells in the presence of E1A)” value in data set [2] (increasing concentrations, three weeks) was “significantly lowered the ability of anti-apoptotic Bcl-2 to transform cells”. For the same compound, the cytotoxicity at 0.25 µM in data set [4] turned out to be 70%; in [5] (Homo sapiens, B23 cells, 0.25 μM, 72 h, read-out: Cytotoxicity (% Dead Cells)) it was 75%; in data set [12], 64%. In addition, the cytotoxicity at 1 µM was 100% in [4], 85% in data set [5] (setting [13]) and 100% in data set [12]. The cytotoxicity at 2 µM in data set [4] is 100%; in data set [5] (setting [13]), 95%; in data set [12], 100%. Besides, in data set [5] (B23 cells with E1A, concentrations as low as), the “Concentration able to inhibit Bcl-2 in B23 cells and re-establish the killing effect of the E1A oncogene” value amounted to 0.25 µM. Moreover, in data set [6], the “Susceptibility of normal baby rat kidney cells” value is given as “not susceptible”. Besides, the “Apoptosis in uninfected KB cells” value in [7] (uninfected cells, same concentrations) is on record as “no effect on apoptosis”. For the same compound, the “Apoptosis in E1A-infected Bcl-2 over-expressing KB cells” value in data set [7] (various concentrations, 70 hours after infection) was “reinstate apoptosis”. Moreover, in data set [9], the cytotoxicity at 72 h, 0.25 µM was 5%. Moreover, in data set [9], the cytotoxicity at 72 h, 1 µM was 5%. Besides, the cytotoxicity at 72 h, 2 µM in data set [9] was determined as 15%. The “Effect on normal human breast epithelial cells” value in [10] is listed as “not affected”. The “Effect on B23 cell death in the absence of E1A” value in data set [11] was “no significant effect”.

For `CCC1CCCCCCCCc2ccc([nH]2)/C=C2\N=C(C=C2OC)c2ccc1[nH]2` (stereo not shown) [Ethylcyclononylprodiginine, ethylcyclononyl-prodiginine], in [1] (read-out: % inhibition at μM concentration, E1A-Bcl2 killing assay), the inhibition at 5 µM amounted to 20%. In data set [5] (setting [13]), the cytotoxicity at 1 µM turned out to be 15% and the cytotoxicity at 5 µM was 20%. Also, in data set [8] (at 510 μM, read-out: % inhibition at μM concentration, Anti-apoptotic:Pro-apoptotic binding assay Bcl-2), the inhibition at 510 µM amounted to 45%.

On to Undecylprodiginine, for which, in data set [1] (at 5 μM), the “% inhibition at μM concentration, E1A-Bcl2 killing assay” value was 25%; 5 μM. The “Cytotoxicity (% Dead Cells)” value in data set [5] (B23 cells, 1.0 μM, 72 h) amounted to 18%; in data set [5] (B23 cells, 5.0 μM, 72 h), 25%. Moreover, the “% inhibition at μM concentration, Anti-apoptotic:Pro-apoptotic binding assay Bcl-2” value in data set [8] (at 500 μM) is on record as 40%; 500 μM.
